Article PMC7026418, “The kinase polypharmacology landscape of clinical PARP inhibitors” (Scientific Reports, 2020)
Read-outs that look alike come from different tables or passages of the source.

Columns and labels:
Assay in all cases: biochemical
Parameters in all cases: DiscoveRx KINOMEscan active site-directed competition binding; percent of control kinase bound to immobilised ligand
[1] = target: CAMK1G (Homo sapiens, UniProt Q96NX5)
[2] = target: CAMKK1 (Homo sapiens, UniProt Q8N5S9)
[3] = target: CDK3 (Homo sapiens, UniProt Q00526)
[4] = target: FGFR3 (Homo sapiens, UniProt P22607)
[5] = target: T1, NEK10 (Homo sapiens, UniProt Q6ZWH5)
T1 sequence (Q6ZWH5 1-1172): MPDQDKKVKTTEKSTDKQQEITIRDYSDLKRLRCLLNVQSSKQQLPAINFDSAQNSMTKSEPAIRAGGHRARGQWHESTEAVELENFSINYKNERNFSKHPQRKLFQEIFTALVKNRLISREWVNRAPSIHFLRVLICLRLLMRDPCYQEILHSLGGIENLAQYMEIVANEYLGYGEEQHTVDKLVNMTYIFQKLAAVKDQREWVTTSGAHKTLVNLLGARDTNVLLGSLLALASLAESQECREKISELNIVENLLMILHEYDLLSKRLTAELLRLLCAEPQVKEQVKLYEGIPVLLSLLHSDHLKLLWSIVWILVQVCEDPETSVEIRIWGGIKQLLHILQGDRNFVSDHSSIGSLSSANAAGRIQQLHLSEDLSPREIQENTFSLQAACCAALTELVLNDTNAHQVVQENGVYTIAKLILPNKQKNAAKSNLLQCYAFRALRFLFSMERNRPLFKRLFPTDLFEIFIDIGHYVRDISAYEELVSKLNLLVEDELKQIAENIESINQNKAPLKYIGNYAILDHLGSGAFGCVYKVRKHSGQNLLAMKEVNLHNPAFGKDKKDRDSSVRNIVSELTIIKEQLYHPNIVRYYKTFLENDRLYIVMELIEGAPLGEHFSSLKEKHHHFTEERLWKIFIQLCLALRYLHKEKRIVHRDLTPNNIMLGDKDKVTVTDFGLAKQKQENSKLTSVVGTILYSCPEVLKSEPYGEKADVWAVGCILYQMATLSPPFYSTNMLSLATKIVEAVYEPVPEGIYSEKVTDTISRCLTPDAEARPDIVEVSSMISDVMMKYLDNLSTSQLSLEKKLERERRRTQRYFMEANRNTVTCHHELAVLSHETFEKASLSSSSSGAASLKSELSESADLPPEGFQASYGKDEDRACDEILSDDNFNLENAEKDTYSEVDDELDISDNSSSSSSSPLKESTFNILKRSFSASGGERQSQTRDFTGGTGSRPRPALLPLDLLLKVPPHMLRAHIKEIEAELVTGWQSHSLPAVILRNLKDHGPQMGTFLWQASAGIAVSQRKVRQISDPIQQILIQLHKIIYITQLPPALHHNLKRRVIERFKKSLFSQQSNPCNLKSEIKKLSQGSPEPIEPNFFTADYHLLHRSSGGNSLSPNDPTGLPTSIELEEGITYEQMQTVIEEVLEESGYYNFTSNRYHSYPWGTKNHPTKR

[6] = target: T2, PCTK1 (Homo sapiens, UniProt Q00536)
T2 construct: gene CDK16

[7] = target: T3, PDPK1 (Homo sapiens, UniProt O15530)
T3 sequence (O15530 1-556): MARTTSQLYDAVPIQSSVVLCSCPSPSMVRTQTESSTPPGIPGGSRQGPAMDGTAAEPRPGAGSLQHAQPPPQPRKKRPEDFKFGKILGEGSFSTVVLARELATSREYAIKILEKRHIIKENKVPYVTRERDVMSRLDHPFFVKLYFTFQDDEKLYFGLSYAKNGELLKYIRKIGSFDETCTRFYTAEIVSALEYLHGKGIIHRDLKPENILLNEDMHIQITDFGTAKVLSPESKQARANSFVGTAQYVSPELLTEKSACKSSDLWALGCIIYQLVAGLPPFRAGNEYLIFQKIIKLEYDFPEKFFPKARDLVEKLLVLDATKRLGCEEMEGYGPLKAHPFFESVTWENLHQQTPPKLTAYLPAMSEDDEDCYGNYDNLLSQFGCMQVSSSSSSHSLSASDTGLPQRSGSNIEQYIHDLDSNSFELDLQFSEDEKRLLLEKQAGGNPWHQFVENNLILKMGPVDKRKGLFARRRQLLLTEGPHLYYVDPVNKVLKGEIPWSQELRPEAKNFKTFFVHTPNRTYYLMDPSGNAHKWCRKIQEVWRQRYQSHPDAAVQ

[8] = target: PLK3 (Homo sapiens, UniProt Q9H4B4)
[9] = target: T4, RPS6KA5(Kin.Dom.1-N-terminal) (Homo sapiens, UniProt O75582)
T4 construct: Kin.Dom.1-N-terminal

[10] = target: T5, YANK2 (Homo sapiens, UniProt Q9NY57)
T5 construct: gene STK32B

[11] = read-out: Niraparib (MK-4827) / %Ctrl @ 10000nM
[12] = read-out: Olaparib / %Ctrl @ 10000nM
[13] = read-out: Rucaparib / %Ctrl @ 10000nM, binding competition, % of control
[14] = read-out: Talazoparib (BMN 673) / %Ctrl @ 10000nM

PLK3, sequence (Q9H4B4 whole entry): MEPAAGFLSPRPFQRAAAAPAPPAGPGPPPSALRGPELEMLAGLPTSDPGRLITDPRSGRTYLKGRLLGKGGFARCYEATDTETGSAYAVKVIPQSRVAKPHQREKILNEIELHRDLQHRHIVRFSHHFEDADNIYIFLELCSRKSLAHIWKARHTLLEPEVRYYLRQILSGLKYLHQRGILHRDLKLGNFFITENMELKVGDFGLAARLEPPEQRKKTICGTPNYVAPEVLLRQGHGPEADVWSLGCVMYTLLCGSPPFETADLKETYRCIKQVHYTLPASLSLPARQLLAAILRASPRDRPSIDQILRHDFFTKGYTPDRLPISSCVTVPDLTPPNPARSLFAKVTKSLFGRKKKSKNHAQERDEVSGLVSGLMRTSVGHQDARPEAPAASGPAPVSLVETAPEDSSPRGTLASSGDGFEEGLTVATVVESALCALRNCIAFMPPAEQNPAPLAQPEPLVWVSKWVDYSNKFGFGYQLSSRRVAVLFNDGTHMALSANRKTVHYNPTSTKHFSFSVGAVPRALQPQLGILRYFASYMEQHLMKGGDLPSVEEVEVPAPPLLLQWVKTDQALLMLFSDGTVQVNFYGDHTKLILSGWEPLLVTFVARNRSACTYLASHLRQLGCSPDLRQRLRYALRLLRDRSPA
CAMKK1, sequence (Q8N5S9 whole entry): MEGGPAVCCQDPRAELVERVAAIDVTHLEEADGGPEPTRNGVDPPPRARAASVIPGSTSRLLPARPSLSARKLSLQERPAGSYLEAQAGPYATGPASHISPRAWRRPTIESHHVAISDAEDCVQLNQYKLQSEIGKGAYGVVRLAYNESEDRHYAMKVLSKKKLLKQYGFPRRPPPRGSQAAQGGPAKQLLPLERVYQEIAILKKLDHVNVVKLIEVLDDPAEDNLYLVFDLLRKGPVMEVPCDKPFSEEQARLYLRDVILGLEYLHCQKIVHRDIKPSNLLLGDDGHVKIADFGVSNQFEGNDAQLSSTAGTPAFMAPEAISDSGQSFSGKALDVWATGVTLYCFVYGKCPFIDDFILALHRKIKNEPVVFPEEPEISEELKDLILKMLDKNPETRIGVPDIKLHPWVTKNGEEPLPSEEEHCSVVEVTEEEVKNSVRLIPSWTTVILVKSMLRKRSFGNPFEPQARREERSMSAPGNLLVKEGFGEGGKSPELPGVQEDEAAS
CAMK1G, sequence (Q96NX5 whole entry): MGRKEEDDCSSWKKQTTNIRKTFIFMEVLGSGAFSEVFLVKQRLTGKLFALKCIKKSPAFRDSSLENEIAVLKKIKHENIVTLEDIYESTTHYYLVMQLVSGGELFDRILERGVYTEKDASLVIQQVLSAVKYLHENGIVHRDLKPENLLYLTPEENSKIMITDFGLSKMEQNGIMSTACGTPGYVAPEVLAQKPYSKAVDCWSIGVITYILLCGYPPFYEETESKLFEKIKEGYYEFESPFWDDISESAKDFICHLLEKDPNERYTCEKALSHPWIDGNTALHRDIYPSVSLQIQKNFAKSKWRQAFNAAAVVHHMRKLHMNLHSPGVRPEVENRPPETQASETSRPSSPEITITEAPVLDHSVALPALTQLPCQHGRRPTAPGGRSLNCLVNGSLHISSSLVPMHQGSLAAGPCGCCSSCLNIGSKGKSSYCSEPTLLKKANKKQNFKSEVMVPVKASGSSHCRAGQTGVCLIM
CDK3, sequence (Q00526 whole entry): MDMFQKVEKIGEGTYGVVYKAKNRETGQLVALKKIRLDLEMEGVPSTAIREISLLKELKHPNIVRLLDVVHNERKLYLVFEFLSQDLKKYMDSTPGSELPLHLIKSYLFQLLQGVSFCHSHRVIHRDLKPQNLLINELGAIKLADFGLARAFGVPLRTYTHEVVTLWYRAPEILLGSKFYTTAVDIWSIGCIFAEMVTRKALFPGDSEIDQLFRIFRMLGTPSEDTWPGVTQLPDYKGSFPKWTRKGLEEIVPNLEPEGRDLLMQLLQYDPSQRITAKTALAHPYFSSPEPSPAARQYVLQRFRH
T4 sequence (O75582 whole entry): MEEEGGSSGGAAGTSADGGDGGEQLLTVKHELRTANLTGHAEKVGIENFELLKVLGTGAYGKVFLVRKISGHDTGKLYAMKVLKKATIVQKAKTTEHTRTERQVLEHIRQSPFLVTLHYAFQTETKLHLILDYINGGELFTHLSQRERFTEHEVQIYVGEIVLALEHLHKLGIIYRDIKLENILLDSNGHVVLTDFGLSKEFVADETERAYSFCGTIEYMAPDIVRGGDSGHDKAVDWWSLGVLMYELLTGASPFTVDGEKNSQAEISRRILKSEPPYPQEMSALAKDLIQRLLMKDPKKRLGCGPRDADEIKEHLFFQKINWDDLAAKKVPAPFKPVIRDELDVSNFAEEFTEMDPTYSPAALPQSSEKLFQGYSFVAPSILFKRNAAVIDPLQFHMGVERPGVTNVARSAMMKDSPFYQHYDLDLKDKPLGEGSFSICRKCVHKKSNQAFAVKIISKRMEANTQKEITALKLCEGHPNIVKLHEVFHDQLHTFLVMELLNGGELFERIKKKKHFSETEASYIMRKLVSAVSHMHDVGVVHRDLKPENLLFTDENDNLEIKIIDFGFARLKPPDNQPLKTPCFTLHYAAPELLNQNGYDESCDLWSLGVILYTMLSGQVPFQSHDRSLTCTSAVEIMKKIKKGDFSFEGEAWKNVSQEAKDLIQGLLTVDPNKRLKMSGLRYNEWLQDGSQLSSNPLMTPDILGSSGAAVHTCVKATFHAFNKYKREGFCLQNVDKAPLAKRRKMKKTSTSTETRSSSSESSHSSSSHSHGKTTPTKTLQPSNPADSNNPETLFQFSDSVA
FGFR3, sequence (P22607 whole entry): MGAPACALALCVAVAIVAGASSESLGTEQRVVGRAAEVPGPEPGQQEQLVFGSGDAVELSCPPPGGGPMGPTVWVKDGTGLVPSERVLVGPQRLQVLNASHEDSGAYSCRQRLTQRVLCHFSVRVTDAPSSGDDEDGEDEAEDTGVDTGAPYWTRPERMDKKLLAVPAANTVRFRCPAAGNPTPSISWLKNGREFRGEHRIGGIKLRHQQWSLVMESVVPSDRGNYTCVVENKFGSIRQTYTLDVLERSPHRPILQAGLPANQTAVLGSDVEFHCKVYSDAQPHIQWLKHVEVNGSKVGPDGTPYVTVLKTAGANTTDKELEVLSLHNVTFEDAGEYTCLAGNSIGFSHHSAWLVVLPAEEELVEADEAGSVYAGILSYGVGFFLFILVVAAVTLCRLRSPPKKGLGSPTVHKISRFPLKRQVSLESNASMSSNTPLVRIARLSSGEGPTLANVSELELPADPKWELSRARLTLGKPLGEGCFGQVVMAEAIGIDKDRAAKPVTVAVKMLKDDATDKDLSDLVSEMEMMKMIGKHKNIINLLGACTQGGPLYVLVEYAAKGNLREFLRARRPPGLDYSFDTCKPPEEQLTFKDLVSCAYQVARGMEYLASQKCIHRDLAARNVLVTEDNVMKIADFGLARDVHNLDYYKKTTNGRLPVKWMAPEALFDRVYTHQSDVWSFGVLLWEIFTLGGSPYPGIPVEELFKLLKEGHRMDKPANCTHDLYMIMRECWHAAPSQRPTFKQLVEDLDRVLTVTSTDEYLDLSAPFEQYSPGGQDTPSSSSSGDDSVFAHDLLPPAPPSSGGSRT
T5 sequence (Q9NY57 whole entry): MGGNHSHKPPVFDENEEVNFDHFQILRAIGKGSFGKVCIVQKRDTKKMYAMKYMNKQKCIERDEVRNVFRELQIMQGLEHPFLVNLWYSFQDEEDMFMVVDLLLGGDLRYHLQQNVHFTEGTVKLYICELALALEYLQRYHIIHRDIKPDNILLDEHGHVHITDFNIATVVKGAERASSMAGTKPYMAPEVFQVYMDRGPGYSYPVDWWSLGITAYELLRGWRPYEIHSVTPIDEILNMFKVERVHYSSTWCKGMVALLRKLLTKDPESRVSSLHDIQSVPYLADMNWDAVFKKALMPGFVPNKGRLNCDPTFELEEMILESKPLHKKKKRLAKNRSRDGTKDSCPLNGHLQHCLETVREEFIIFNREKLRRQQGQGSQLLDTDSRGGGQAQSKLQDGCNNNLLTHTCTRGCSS
T2 sequence (Q00536 whole entry): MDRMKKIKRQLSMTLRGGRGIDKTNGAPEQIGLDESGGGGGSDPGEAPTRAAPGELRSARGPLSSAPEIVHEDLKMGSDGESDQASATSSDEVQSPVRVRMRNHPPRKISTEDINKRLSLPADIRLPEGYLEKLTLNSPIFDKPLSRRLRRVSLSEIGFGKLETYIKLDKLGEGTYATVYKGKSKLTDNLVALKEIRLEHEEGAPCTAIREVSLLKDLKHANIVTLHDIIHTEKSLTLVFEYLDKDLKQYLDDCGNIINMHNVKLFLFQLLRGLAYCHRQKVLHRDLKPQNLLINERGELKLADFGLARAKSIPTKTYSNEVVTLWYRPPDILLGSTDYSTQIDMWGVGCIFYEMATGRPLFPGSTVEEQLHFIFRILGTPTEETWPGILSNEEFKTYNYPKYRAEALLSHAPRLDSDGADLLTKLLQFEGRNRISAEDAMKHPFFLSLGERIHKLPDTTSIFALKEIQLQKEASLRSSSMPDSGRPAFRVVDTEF

In the case of `NC(=O)c1cccc2cn(-c3ccc([C@@H]4CCCNC4)cc3)nc12` [Niraparib], the percent of control binding at 10 µM [1, 11] is reported as 100%, the percent of control binding at 10 µM [2, 11] is reported as 88% and the percent of control binding at 10 µM [3, 11] is reported as 95%. The percent of control binding at 10 µM [4, 11] was 94%, the percent of control binding at 10 µM [5, 11] was 68% and the percent of control binding at 10 µM [6, 11] was 47%. The percent of control binding at 10 µM [7, 11] was 80%, the percent of control binding at 10 µM [8, 11] was 85% and the percent of control binding at 10 µM [9, 11] was 99%. The percent of control binding at 10 µM [10, 11] was 100%.

Work on `O=C(c1cc(Cc2n[nH]c(=O)c3ccccc23)ccc1F)N1CCN(C(=O)C2CC2)CC1` [Olaparib] yielded a percent of control binding at 10 µM [1, 12] of 93%, a percent of control binding at 10 µM [2, 12] of 88% and a percent of control binding at 10 µM [3, 12] of 100%. The percent of control binding at 10 µM [4, 12] was 100%, the percent of control binding at 10 µM [5, 12] was 78% and the percent of control binding at 10 µM [6, 12] was 99%. It also gave a percent of control binding at 10 µM [7, 12] of 100%, a percent of control binding at 10 µM [8, 12] of 98% and a percent of control binding at 10 µM [9, 12] of 94%. For the same compound, the percent of control binding at 10 µM [10, 12] was 94%.

For `CNCc1ccc(-c2[nH]c3cc(F)cc4c3c2CCNC4=O)cc1` [Rucaparib], the percent of control binding at 10 µM [1, 13] was 89%, the percent of control binding at 10 µM [2, 13] was 66% and the percent of control binding at 10 µM [3, 13] was 94%. For the same compound, the percent of control binding at 10 µM [4, 13] was 99%, the percent of control binding at 10 µM [5, 13] was 14% and the percent of control binding at 10 µM [6, 13] was 13%. For the same compound, the percent of control binding at 10 µM [7, 13] was 97%, the percent of control binding at 10 µM [8, 13] was 60% and the percent of control binding at 10 µM [9, 13] was 100%. It also gave a percent of control binding at 10 µM [10, 13] of 100%.

Work on `Cn1ncnc1[C@H]1c2n[nH]c(=O)c3cc(F)cc(c23)N[C@@H]1c1ccc(F)cc1` [Talazoparib] yielded a percent of control binding at 10 µM [1, 14] of 100%, a percent of control binding at 10 µM [2, 14] of 97% and a percent of control binding at 10 µM [3, 14] of 100%. It also gave a percent of control binding at 10 µM [4, 14] of 100%, a percent of control binding at 10 µM [5, 14] of 100% and a percent of control binding at 10 µM [6, 14] of 86%. It also gave a percent of control binding at 10 µM [7, 14] of 85%, a percent of control binding at 10 µM [8, 14] of 90% and a percent of control binding at 10 µM [9, 14] of 98%. The percent of control binding at 10 µM [10, 14] was 91%.
